{
  "source": "paper PMC3009643",
  "about": "(BMC Neuroscience, 2010)",
  "key": {"[1]": {"system": "neuro-2a mouse neuroblastoma cells", "settings": "cited from earlier work; for fold less potent than ATX in producing toxicity: neuro-2a mouse neuroblastoma cells"}, "rNav1.4 α-subunit": {"target": "T1, rNav1.4 α-subunit (Rattus norvegicus, UniProt P15390)", "T1 construct": "host or cells: HEK 293", "assay": "SBFI sodium influx assay in rNav1.4-HEK 293 cells", "type": "cell-based", "settings": "for maximal response of sodium influx, area under the curve (AUC, fluorescence × time) (95%CI) / EC50: rNav1.4-HEK 293 cells; for EC50: SBFI, 37°C, read-out: EC50 (nM) (95% CI), sodium influx"}, "CHL 1610 cells": {"system": "CHL 1610 cells", "assay": "SBFI sodium influx assay in wild type CHL 1610 parent cells", "type": "cell-based, Chinese hamster", "settings": "wild type CHL 1610 parent cell line"}, "[2]": {"target": "T2, calcium-permeable DEAA mutant of rNav1.4 α-subunit (Rattus norvegicus, UniProt P15390, K1237A)", "T2 construct": "host or cells: HEK 293", "assay": "fluo-3 calcium influx assay in DEAA-HEK 293 cells", "type": "cell-based", "settings": "for EC50: fluo-3, read-out: EC50, Ca2+ influx (95% CI)"}, "[3]": {"system": "rNav1.2-CHL 1610, rNav1.4-HEK 293 and rNav1.5-CHL 160 cells", "type": "cell-based", "settings": "1 μM ATX for 24 h; preliminary experiments", "experimental": "Supplementary file 1471-2202-11-154-S1.TIFF: Additional file 1 Lack of toxic effect of ATX in rNav1.2-CHL 1610, rNav1.4-HEK 293 and rNav1.5-CHL 160 cells. The cells were exposed to 1 μM ATX for 24 h and the medium was collected and subjected to LDH activity measurement as described by Koh and Choi (1987; Koh, JY, and Choi, DW. Quantitative determination of glutamate mediated cortical neuronal injury in cell culture by lactate dehydrogenase efflux assay. J Neurosci Methods 20:83-90). […] Click here for file"}, "rNav1.2 α-subunit": {"target": "T3, rNav1.2 α-subunit (Rattus norvegicus, UniProt P04775)", "T3 construct": "host or cells: CHL 1610 (Chinese hamster lung)", "T3 sequence (P04775 whole entry)": "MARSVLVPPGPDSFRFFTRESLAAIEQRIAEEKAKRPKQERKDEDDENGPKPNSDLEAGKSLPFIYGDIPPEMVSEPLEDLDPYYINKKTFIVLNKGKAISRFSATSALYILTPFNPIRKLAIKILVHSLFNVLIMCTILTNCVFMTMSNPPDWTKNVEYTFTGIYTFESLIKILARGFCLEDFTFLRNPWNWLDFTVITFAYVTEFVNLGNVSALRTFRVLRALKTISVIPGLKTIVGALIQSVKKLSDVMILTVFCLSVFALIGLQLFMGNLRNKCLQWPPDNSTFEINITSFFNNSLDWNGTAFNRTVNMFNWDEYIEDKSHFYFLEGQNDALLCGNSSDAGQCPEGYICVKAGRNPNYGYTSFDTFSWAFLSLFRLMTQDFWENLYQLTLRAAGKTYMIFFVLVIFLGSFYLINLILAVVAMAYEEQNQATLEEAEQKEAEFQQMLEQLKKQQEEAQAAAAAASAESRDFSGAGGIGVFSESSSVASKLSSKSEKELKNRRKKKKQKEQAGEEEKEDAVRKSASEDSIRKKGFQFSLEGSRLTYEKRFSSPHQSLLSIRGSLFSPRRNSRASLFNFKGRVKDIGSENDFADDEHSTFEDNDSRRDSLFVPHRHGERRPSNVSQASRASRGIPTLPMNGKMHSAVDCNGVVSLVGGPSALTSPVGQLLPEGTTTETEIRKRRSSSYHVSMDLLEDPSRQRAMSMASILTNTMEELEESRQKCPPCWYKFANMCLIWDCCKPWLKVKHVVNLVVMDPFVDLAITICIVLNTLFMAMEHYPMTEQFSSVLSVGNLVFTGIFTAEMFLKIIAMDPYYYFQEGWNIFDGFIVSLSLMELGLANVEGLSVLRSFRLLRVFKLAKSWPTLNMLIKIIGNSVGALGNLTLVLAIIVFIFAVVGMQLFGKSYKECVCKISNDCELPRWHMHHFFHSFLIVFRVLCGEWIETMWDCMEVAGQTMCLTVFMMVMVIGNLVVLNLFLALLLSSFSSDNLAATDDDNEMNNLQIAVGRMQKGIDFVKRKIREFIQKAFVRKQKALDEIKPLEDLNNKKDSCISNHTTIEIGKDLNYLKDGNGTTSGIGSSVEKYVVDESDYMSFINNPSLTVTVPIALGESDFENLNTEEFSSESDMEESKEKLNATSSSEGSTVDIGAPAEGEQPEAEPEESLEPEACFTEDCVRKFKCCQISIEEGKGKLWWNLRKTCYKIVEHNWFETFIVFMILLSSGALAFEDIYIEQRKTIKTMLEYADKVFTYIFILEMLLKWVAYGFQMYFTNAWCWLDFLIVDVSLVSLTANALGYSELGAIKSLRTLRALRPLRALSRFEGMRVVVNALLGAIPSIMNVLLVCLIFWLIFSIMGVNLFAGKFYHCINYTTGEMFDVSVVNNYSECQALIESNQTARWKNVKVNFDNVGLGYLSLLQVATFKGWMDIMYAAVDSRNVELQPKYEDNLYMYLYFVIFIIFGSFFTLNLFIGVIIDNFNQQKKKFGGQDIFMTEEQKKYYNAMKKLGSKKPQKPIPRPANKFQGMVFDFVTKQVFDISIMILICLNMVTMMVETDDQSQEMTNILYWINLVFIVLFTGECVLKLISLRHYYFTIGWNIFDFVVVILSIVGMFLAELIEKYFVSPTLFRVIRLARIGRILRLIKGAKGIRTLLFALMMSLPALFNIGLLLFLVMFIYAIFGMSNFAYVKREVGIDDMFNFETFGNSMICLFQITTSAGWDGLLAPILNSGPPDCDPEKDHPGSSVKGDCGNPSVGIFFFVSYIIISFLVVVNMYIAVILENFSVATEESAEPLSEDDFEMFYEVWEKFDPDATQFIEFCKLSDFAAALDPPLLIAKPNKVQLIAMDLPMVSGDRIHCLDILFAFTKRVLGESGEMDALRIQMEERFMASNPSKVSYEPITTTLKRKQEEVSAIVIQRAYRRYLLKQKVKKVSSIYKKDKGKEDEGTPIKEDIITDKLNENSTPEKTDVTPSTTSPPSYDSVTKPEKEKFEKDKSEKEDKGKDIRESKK", "assay": "cell-based", "type": "cell-based", "settings": "for EC50: rNav1.2-CHL 1610 cells, SBFI, 37°C, read-out: EC50 (nM) (95% CI), sodium influx"}, "rNav1.5 α-subunit": {"target": "T4, rNav1.5 α-subunit (Rattus norvegicus, UniProt P15389)", "T4 construct": "host or cells: CHL 1610 (Chinese hamster lung)", "T4 sequence (P15389 whole entry)": "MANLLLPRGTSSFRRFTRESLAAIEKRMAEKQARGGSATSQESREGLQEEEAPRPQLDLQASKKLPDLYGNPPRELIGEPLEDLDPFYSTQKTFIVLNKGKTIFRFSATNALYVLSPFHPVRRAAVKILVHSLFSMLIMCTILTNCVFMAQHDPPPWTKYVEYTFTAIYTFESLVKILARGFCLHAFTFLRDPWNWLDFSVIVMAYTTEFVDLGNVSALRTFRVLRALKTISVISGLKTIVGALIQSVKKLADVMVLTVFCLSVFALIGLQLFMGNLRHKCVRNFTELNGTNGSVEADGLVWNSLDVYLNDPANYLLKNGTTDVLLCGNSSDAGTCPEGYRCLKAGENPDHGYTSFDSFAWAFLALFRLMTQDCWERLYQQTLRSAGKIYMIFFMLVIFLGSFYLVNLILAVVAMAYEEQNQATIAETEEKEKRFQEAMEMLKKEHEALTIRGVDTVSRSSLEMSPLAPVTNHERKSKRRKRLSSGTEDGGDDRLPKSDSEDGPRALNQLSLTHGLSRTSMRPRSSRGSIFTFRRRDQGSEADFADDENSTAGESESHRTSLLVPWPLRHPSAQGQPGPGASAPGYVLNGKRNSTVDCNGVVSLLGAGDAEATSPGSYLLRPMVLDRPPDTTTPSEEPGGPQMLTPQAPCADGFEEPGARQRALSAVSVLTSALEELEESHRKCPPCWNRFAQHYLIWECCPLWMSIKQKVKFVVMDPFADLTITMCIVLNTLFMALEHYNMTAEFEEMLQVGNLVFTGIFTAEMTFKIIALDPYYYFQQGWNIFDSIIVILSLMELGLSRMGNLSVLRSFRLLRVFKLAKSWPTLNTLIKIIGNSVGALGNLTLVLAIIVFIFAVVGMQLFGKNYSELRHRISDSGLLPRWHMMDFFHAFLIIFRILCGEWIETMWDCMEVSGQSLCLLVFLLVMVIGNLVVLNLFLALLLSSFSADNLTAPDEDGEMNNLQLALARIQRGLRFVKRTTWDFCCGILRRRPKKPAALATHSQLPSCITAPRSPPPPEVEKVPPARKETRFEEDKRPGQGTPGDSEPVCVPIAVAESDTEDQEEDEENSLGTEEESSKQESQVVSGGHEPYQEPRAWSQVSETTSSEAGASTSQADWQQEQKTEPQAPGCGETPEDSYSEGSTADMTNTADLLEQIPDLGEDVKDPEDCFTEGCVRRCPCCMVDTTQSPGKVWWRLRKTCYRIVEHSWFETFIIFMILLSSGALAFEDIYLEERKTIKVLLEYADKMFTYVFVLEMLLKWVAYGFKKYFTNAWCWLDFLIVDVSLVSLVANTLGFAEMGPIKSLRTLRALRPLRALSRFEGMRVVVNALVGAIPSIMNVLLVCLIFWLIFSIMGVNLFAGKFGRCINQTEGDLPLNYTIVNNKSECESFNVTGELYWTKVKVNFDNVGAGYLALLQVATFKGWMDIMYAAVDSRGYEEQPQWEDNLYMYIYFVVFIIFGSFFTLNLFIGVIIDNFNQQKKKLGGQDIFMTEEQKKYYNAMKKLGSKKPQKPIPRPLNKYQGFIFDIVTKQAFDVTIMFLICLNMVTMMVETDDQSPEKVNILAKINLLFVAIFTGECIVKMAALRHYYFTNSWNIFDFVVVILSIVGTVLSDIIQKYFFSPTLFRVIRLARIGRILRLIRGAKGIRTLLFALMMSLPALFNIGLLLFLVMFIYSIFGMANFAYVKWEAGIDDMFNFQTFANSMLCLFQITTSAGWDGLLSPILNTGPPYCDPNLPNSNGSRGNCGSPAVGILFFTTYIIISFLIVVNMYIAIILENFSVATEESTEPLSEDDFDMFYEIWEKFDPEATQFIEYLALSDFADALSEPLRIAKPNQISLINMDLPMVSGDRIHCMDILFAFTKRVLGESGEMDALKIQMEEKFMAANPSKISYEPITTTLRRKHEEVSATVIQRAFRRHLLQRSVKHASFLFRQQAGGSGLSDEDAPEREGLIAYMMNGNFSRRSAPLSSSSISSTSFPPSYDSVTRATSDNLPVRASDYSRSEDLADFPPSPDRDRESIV", "assay": "SBFI sodium influx assay in rNav1.5-CHL 1610 cells", "type": "cell-based", "settings": "for EC50: rNav1.5-CHL 1610 cells, SBFI, 37°C, read-out: EC50 (nM) (95% CI), sodium influx"}, "HEK 293 cells": {"system": "HEK 293 cells", "assay": "SBFI sodium influx assay in wild type HEK 293 parent cells", "type": "cell-based, human", "settings": "wild type HEK 293 parent cell line"}, "[4]": {"system": "sodium channel neurotoxin site 2", "settings": "cited from earlier work"}, "neocortical neurons": {"system": "neocortical neurons", "settings": "cited from earlier work"}},
  "note": "Like-named read-outs stand apart in the source and are kept apart here.",
  "data": [
    {"compound": "8-demethyl-antillatoxin [reference compound]", "values": [
      {"measurement": "fold less potent than ATX in producing toxicity", "setting": "[1]", "result": 244, "unit": "fold"}
    ]},
    {"compound": "C=C1CC(=O)N[C@@H](C)C(=O)N(C)[C@@H](C(C)C)C(=O)NCC(=O)O[C@@H](/C(C)=C/C(C)=C/C(C)(C)C)[C@@H]1C", "note": "[ATX, antillatoxin]", "values": [
      {"measurement": "maximal response of sodium influx, area under the curve (AUC, fluorescence × time) (95%CI)", "setting": "rNav1.4 α-subunit; ATX alone", "result": 439.4},
      {"measurement": "maximal response of sodium influx, area under the curve (AUC, fluorescence × time) (95%CI)", "setting": "rNav1.4 α-subunit; ATX in the presence of PbTx-2 (3 μM)", "result": 537.9},
      {"measurement": "EC50", "setting": "rNav1.4 α-subunit", "result": 165, "unit": "nM"},
      {"measurement": "Efficacy (relative), sodium influx", "setting": "rNav1.4 α-subunit; rNav1.4, relative to ATX = 1", "result": 1},
      {"measurement": "fold more potent than in neuronal rNav1.2, sodium influx", "setting": "rNav1.4 α-subunit; skeletal muscle rNav1.4 versus rNav1.2", "result": 2, "unit": "fold"},
      {"measurement": "sodium influx (in words)", "setting": "CHL 1610 cells", "result": "minimal sodium influx"},
      {"measurement": "EC50", "setting": "[2]; DEAA-HEK 293 cells", "result": 165, "unit": "nM"},
      {"measurement": "toxicity (LDH activity, in words)", "setting": "[3]", "result": "not toxic"},
      {"measurement": "EC50", "setting": "rNav1.2 α-subunit", "result": 376, "unit": "nM"},
      {"measurement": "Efficacy (relative), sodium influx", "setting": "rNav1.2 α-subunit; rNav1.2, relative to ATX = 1", "result": 1},
      {"measurement": "fold more potent than in neuronal rNav1.2, sodium influx", "setting": "rNav1.5 α-subunit; cardiac rNav1.5 versus rNav1.2", "result": 2, "unit": "fold"},
      {"measurement": "EC50", "setting": "rNav1.5 α-subunit", "result": 205, "unit": "nM"},
      {"measurement": "Efficacy (relative), sodium influx", "setting": "rNav1.5 α-subunit; rNav1.5, relative to ATX = 1", "result": 1},
      {"measurement": "sodium influx (in words)", "setting": "HEK 293 cells", "result": "minimal sodium influx"}
    ]},
    {"compound": "C=C1CC(=O)N[C@@H](C)C(=O)N(C)[C@@H](C(C)C)C(=O)NCC(=O)O[C@@H](/C(C)=C/CCC(C)(C)C)[C@@H]1C", "note": "[DH-ATX, 8-demethyl-8,9-dihydro-antillatoxin]", "values": [
      {"measurement": "EC50", "setting": "rNav1.4 α-subunit", "result": 644, "unit": "nM"},
      {"measurement": "Efficacy (relative), sodium influx", "setting": "rNav1.4 α-subunit; rNav1.4, relative to ATX = 1", "result": 0.33},
      {"measurement": "fold less potent than ATX in producing toxicity", "setting": "[1]", "result": 27, "unit": "fold"},
      {"measurement": "EC50", "setting": "[1]; neuro-2a neuroblastoma cells, read-out: EC50, toxicity", "result": 1200, "unit": "nM"},
      {"measurement": "EC50", "setting": "[2]; DEAA-HEK 293 cells", "result": 680, "unit": "nM"},
      {"measurement": "relative efficacy, Ca2+ influx", "setting": "[2]; DEAA-HEK 293 cells, relative to ATX", "result": 0.24},
      {"measurement": "EC50", "setting": "rNav1.2 α-subunit", "result": 1130, "unit": "nM"},
      {"measurement": "Efficacy (relative), sodium influx", "setting": "rNav1.2 α-subunit; rNav1.2, relative to ATX = 1", "result": 0.32},
      {"measurement": "fold less potent than ATX, stimulation of sodium influx", "setting": "rNav1.2 α-subunit; stated for all three cell lines (rNav1.2-CHL 1610, rNav1.4-HEK 293, rNav1.5-CHL 1610)", "result": "2.5 - 4 fold"},
      {"measurement": "EC50", "setting": "rNav1.5 α-subunit", "result": 595, "unit": "nM"},
      {"measurement": "Efficacy (relative), sodium influx", "setting": "rNav1.5 α-subunit; rNav1.5, relative to ATX = 1", "result": 0.25}
    ]},
    {"compound": "CCC[C@@H](C)[C@H](O)[C@H](C)[C@H]1OC(=O)[C@H]([C@@H](C)O)NC(=O)[C@H](C(C)C)OC(=O)[C@H](C)[C@H](O)[C@H]([C@@H](C)CC)NC(=O)[C@@]2(C)CSC(=N2)[C@@]2(C)CSC(=N2)c2csc(n2)C[C@H](OC)[C@@H]1C", "note": "[Hoiamide A, hoiamide A]", "values": [
      {"measurement": "fold more potent than veratridine, inhibition of [3H]BTX binding", "setting": "[4]", "result": 360, "unit": "fold"},
      {"measurement": "IC50", "setting": "[4]; read-out: IC50, inhibition of [3H]BTX binding", "result": 92.8, "unit": "nM"}
    ]},
    {"compound": "NC1=N[C@H](O)[C@H]2[C@H]3O[C@]4(O)O[C@@H]([C@@H](O)[C@@]2(N1)[C@@H]4O)[C@]3(O)CO", "note": "[TTX, tetrodotoxin, reference compound]", "values": [
      {"measurement": "IC50", "setting": "rNav1.4 α-subunit; read-out: IC50, inhibition of ATX-induced sodium influx (95% CI)", "result": 25.2, "unit": "nM"}
    ]},
    {"compound": "COc1ccc(C(=O)O[C@H]2CC[C@@]3(C)[C@@H]4CC[C@H]5[C@]6(O)C[C@H](O)[C@@]7(O)[C@@H](CN8C[C@@H](C)CC[C@H]8[C@@]7(C)O)[C@]6(O)C[C@@]53O[C@]24O)cc1OC", "note": "[Veratridine, veratridine, reference compound]", "values": [
      {"measurement": "Efficacy (relative), sodium influx", "setting": "rNav1.4 α-subunit; rNav1.4, relative to ATX = 1", "result": 0},
      {"measurement": "efficacy, sodium influx", "setting": "neocortical neurons; neocortical neurons", "result": 0.67},
      {"measurement": "stimulation of Ca2+ influx (in words)", "setting": "[2]; DEAA-HEK 293 cells", "result": "without effect"},
      {"measurement": "Efficacy (relative), sodium influx", "setting": "rNav1.2 α-subunit; rNav1.2, relative to ATX = 1", "result": 0},
      {"measurement": "Efficacy (relative), sodium influx", "setting": "rNav1.5 α-subunit; rNav1.5, relative to ATX = 1", "result": 0}
    ]},
    {"compound": "brevetoxin-2 [PbTx-2, reference compound]", "values": [
      {"measurement": "Efficacy (relative), sodium influx", "setting": "rNav1.4 α-subunit", "result": 0},
      {"measurement": "efficacy, sodium influx", "setting": "neocortical neurons", "result": 0.81},
      {"measurement": "stimulation of Ca2+ influx (in words)", "setting": "[2]", "result": "without effect"},
      {"measurement": "Efficacy (relative), sodium influx", "setting": "rNav1.2 α-subunit", "result": 0},
      {"measurement": "Efficacy (relative), sodium influx", "setting": "rNav1.5 α-subunit", "result": 0}
    ]}
  ]
}
